{"source": "patent US20040120949A1", "about": "“Compositions and methods for treating cancer using cytotoxic CD44 antibody immunoconjugates and radiotherapy” (Boehringer Ingelheim International GmbH, priority 2002, published 2004)", "molecules": {"B1": {"name": "BIWA 4 (antibody, human IgG1, kappa, V domains shown)", "VH": "EVQLVESGGGLVKPGGSLRLSCAASGFTFSSYDMSWVRQAPGKGLEWVSTISSGGSYTYYLDSIKGRFTISRDNAKNSLYLQMNSLRAEDTAVYYCARQGLDYWGRGTLVTVSS", "VL": "EIVLTQSPATLSLSPGERATLSCSASSSINYIYWYQQKPGQAPRLLIYLTSNLASGVPARFSGSGSGTDFTLTISSLEPEDFAVYYCLQWSSNPLTFGGGTKVEIKR"}, "B2": {"name": "BIWI 1 (antibody, V domains shown)", "VH": "B1 VH", "VL": "B1 VL", "modifications": "maytansinoid DM1 linked by a disulfide bond through the SPP-derived thiopentanoate linker to amino functions of the antibody; DM1/MAb ratio 3.1 (average for the whole antibody; sites not stated)"}}, "key": {"cells in vitro": {"tested_on": "cells in vitro", "conditions": "free drug; cited from earlier work"}, "human FaDu SCC": {"tested_on": "human FaDu SCC", "assay": "Tumor growth delay and local control of FaDu tumors in nude mice, drug alone or with fractionated irradiation", "assay_type": "in vivo, NMRI (nu/nu) mice", "conditions": "for Growth delay to 5 times the starting volume (tν5) / Growth delay to 10 times the starting volume (tV10): median", "description": "(§1) BIWI 1, BIWA 4 and phosphate buffered saline (PBS) were applied intravenously (i.v.) in one of the tail veins. BIWI 1 was applied in doses of 50 μg and 100 μg DM1/kg body weight (b.w.)/d. Control animals were treated either with BIWA 4 (antibody control, 7 mg/kg b. w./d) or PBS.\n(§2) Animals: The experiments were performed using 7-14 week old male and female NMRI (nu/nu) mice from the specific pathogen-free animal breeding facility of the Experimental Center of the Medical Faculty of the University of Dresden. The animal facilities and the experiments were approved according to the German animal welfare regulations. The microbiological status of the animals was regularly checked by the veterinarians of the facility. The animal rooms provided day light plus a 12 h light-12 h dark electric cycle (light-on time 07.00 a.m.) and a constant temperature of 26° C. and relative humidity of 50-60%. The animals were fed a commercial laboratory animal diet and water ad libitum. To immunosuppress the nude mice further, they were whole-body irradiated 2 days before tumor transplantation with 4 Gy using 200 kV X-rays (0.5 mm Cu) at a dose rate of about 1 Gy/min.\nTumor: FaDu is an established human hypopharyngeal squamous cell carcinoma line, kept in high passage by the American Type Culture Collection (Rockville, Md.). In nude mice FaDu grows as an undifferentiated carcinoma with a volume doubling time (VDT) between 100 mm^3 and 400 mm^3 of about 4 days. […] For the experiments small tumor pieces were transplanted subcutaneously (s.c.) into the right hindleg of anaesthetised mice.\n(§3) Combination of BIWI 1 with fractionated irradiation: Local irradiations were given under ambient conditions without anaesthesia to air breathing animals (200 kV X-rays, 0.5 mm Cu, at a dose rate of 1.1 Gy/min). Up to five animals were irradiated simultaneously in specially designed jigs. For the treatments, the mice were immobilised in a plastic tube fixed on a lucite plate. The tumor-bearing leg was held positioned in the irradiation field by a foot-holder distal to the tumor. Tumor volume at the start of irradiation were around 100 mm^3. Tumors were irradiated with 5 fractions of 4 Gy in 5 days. The animals were randomized over the experimental matrix in groups of 5, aiming for about 15 animals (range 14 to 15 animals) for each treatment group. Irradiation protocols were started every second day. Animals received either BIWI 1 (50 μg DM1/kg/d), BIWI 1 (100 μg DM1/kg/d), BIWA 4 (7 mg/kg/d) or PBS two hours after each irradiation for 5 consecutive days. The report includes data obtained from a total of 59 irradiated tumors. In addition, 57 unirradiated FaDu tumors were treated with BIWI 1 (50 μg/kg/d), BIWI 1 (100 μg/kg/d), BIWA 4 (7 mg/kg/d) or PBS for 5 consecutive days.\nDeterminations of tumor volume and tumor growth delay: Animals were observed until the mean diameter of the untreated or recurrent tumors exceeded 12-15 mm, until death or until day 120 after end of treatment. Animals that appeared to suffer were killed before reaching these endpoints. Tumor diameters were measured every second day. Tumor volumes were determined by the formula of a rotational ellipsoid π/6×a×b^2, where a is the longest and b is the perpendicular shorter tumor axis. Conversion of tumor volumes to tumor mass (mg) was performed by a calibration curve based on excision weights. Tumor growth delay was determined from individual growth curves as the time that a regrowing tumor needed to reach 5 and 10 times the start volume (tv5, tv10).\nStatistics: Medians and 95% confidence intervals (CI) of the tumor growth delay were calculated according to Sachs (Angewandte Statistik, 7. Aufl., Springer 1992). Experimental groups were compared using the Mann-Whitney-U test and a commercial software package (SPSS for Windows 9.0, SPSS Inc., 1999)."}, "CD44v6": {"tested_on": "CD44v6", "sequence (P16070 386-428 limits assumed)": "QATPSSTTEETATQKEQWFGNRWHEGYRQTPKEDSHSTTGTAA", "assay": "Antigen binding affinity of humanised VFF-18 versions", "set-up": "species or system human"}, "[1]": {"assay": "Biodistribution and tumor uptake in vivo"}, "[2]": {"assay": "Tolerability in tumor-bearing nude mice", "assay_type": "in vivo", "description": "as §1, §2, §3"}, "[3]": {"tested_on": "antigen-positive FaDu cells", "assay": "In vitro binding to FaDu cells by FACS", "conditions": "on ice 1 hour, FITC-labeled anti-human IgG, read-out: apparent KD", "description": "The binding of BIWA 4 antibody and BIWI 1 conjugate to antigen-positive FaDu cells was determined. Cells (1−2×10^−5) were incubated in 96-well plates with varying concentrations of antibody or conjugate on ice for 1 hour. The test article was washed from the plate and FITC-labeled anti-human IgG was added and the incubation on ice was continued in the dark for 1 hour. After washing, the cells were fixed with 1% paraformaldehyde and analyzed on a fluorescence activated cell sorter (FACS)."}, "[4]": {"target": "CD44v6 on antigen-positive FaDu cells (human) (UniProt P16070)", "assay": "flow cytometry (FACS) on antigen-positive FaDu cells, FITC-labeled anti-human IgG detection; apparent KD"}, "[5]": {"conditions": "BIWA 4 7 mg/kg/d + fractionated irradiation"}, "[6]": {"conditions": "BIWA 4 7 mg/kg/d i.v. x5 days, no irradiation"}, "[7]": {"conditions": "BIWA 4 7 mg/kg/d x5 days + fRT (5x4 Gy)"}, "[8]": {"conditions": "50 μg DM1/kg b.w./d alone, no irradiation"}, "[9]": {"conditions": "50 μg DM1/kg/d + fractionated irradiation"}, "[10]": {"conditions": "50 ug DM1/kg/d i.v. x5 days, no irradiation"}, "[11]": {"conditions": "50 ug DM1/kg/d x5 days + fRT (5x4 Gy)"}, "[12]": {"conditions": "100 ug DM1/kg/d i.v. x5 days, no irradiation"}, "[13]": {"conditions": "100 ug DM1/kg/d x5 days + fRT (5x4 Gy)"}}, "note": "Values joined by “and” are separate entries in the source; they are usually repeats but may differ in a detail not shown here. Equal entries are not always repeated."}
{"molecule": "COc1cc2cc(c1Cl)N(C)C(=O)C[C@H](OC(=O)[C@H](C)N(C)C(=O)CCS)[C@]1(C)O[C@H]1[C@H](C)[C@@H]1C[C@@](O)(NC(=O)O1)[C@H](OC)/C=C/C=C(\\C)C2", "note": "[DM1, N^2′-deacetyl-N^2′-(3-mercapto-1-oxopropyl)-Maytansine]", "values": [{"measurement": "concentration toxic to cells in vitro", "setting": "cells in vitro", "result": "approximately 10^−10 M"}]}
{"molecule": "BIWA 4: Humanised version of antibody VFF-18, CD44v6 specific; light chains SEQ ID NO:4, heavy chains SEQ ID NO:6", "values": [{"measurement": "Local tumor control rate at day 120", "setting": "human FaDu SCC; [5]", "result": "0/14"}, {"measurement": "estimated dose modifying factor", "setting": "human FaDu SCC; [5]", "result": 1.2}, {"measurement": "Growth delay compared with irradiated controls", "setting": "human FaDu SCC; BIWA 4 7 mg/kg/d + irradiation 20 Gy in 5 fractions", "result": "slightly but significant longer growth delay"}, {"measurement": "Tumor growth compared with control tumors treated with PBS", "setting": "human FaDu SCC; BIWA 4 7 mg/kg/d alone, no irradiation", "result": "did not alter tumor growth"}, {"measurement": "Growth delay to 5 times the starting volume (tν5)", "setting": "human FaDu SCC; [6]", "result": "10,8 d"}, {"measurement": "Growth delay to 10 times the starting volume (tV10)", "setting": "human FaDu SCC; [6]", "result": 16.0, "unit": "days"}, {"measurement": "Growth delay to 5 times the starting volume (tν5)", "setting": "human FaDu SCC; [7]", "result": 30.5, "unit": "days"}, {"measurement": "Growth delay to 10 times the starting volume (tV10)", "setting": "human FaDu SCC; [7]", "result": 40.0, "unit": "days"}, {"measurement": "Antigen binding affinity (comparative)", "setting": "CD44v6", "result": "significantly lower antigen binding affinity as its parent antibody VFF-18"}, {"measurement": "Biodistribution and tumor uptake in vivo", "setting": "[1]", "result": "very favorable biodistribution and tumor uptake in vivo"}, {"measurement": "Toxicity observed after application", "setting": "[2]; i.v. x5 days", "result": "No toxicity was observed"}, {"measurement": "Body weight during the treatment", "setting": "[2]; irradiated and unirradiated animals, versus PBS group", "result": "minor and temporary changes without significant differences"}, {"measurement": "Kd", "setting": "[3]", "result": 1, "unit": "nM"}]}
{"molecule": "BIWI 1", "values": [{"measurement": "tv5 and tv10 compared with irradiated tumors which received PBS or BIWA 4", "setting": "human FaDu SCC; 50 μg DM1/kg b.w./d + irradiation 20 Gy in 5 fractions", "result": "clear-cut longer"}, {"measurement": "tv5 compared with controls", "setting": "human FaDu SCC; [8]", "result": "did not prolong"}, {"measurement": "tv10 compared with controls", "setting": "human FaDu SCC; [8]", "result": "slightly but significant longer"}, {"measurement": "Effect of combined treatment with fractionated irradiation (radiosensitizing efficacy)", "setting": "human FaDu SCC; [9]", "result": "supra-additive"}, {"measurement": "Local tumor control rate at day 120", "setting": "human FaDu SCC; [9]", "result": "7 out of 15"}, {"measurement": "estimated dose modifying factor", "setting": "human FaDu SCC; [9]", "result": 4.1}, {"measurement": "Local tumor control rate at day 120", "setting": "human FaDu SCC; 50 μg DM1/kg/d + fractionated irradiation, listed as BIWI1", "result": "7/15"}, {"measurement": "Growth delay to 5 times the starting volume (tν5)", "setting": "human FaDu SCC; [10]", "result": 13.5, "unit": "days"}, {"measurement": "Growth delay to 10 times the starting volume (tV10)", "setting": "human FaDu SCC; [10]", "result": 26.0, "unit": "days"}, {"measurement": "Growth delay to 5 times the starting volume (tν5)", "setting": "human FaDu SCC; [11]", "result": 107.5, "unit": "days"}, {"measurement": "Growth delay to 10 times the starting volume (tV10)", "setting": "human FaDu SCC; [11]", "result": ">120", "unit": "days"}, {"measurement": "tv5 and tv10 compared with irradiated tumors which received PBS or BIWA 4", "setting": "human FaDu SCC; 100 μg DM1/kg b.w./d + irradiation 20 Gy in 5 fractions", "result": "significant longer"}, {"measurement": "Tv5 and tv10 compared to controls", "setting": "human FaDu SCC; 100 μg DM1/kg b.w./d alone, no irradiation", "result": "substantially and significantly prolonged"}, {"measurement": "estimated dose modifying factor", "setting": "human FaDu SCC; 100 μg DM1/kg/d + fractionated irradiation", "result": "> 4.5"}, {"measurement": "Local tumor control rate at day 120", "setting": "human FaDu SCC; 100 μg DM1/kg/d + fractionated irradiation, 4 further controlled animals censored earlier", "result": "6 out of 15 and 6/15"}, {"measurement": "Growth delay to 5 times the starting volume (tν5)", "setting": "human FaDu SCC; [12]", "result": 27.5, "unit": "days"}, {"measurement": "Growth delay to 10 times the starting volume (tV10)", "setting": "human FaDu SCC; [12]", "result": 33.5, "unit": "days"}, {"measurement": "Growth delay to 5 times the starting volume (tν5)", "setting": "human FaDu SCC; [13]", "result": ">120", "unit": "days"}, {"measurement": "Growth delay to 10 times the starting volume (tV10)", "setting": "human FaDu SCC; [13]", "result": ">120", "unit": "days"}, {"measurement": "estimated kill of clonogenic FaDu cells", "setting": "human FaDu SCC; 5x 100 μg DM1/kg/d alone", "result": "at least two logs"}, {"measurement": "Toxicity observed after application", "setting": "[2]; i.v. x5 days", "result": "No toxicity was observed"}, {"measurement": "Tolerability", "setting": "[2]; i.v. x5 days, irradiated and unirradiated animals", "result": "well tolerated"}, {"measurement": "Body weight during the treatment", "setting": "[2]; mouse, in vivo", "result": "minor and temporary changes without significant differences"}, {"measurement": "Kd", "setting": "[3]", "result": 1.8, "unit": "nM"}]}
{"molecule": "B1", "values": [{"measurement": "Kd", "setting": "[4]", "result": 1, "unit": "nM"}]}
{"molecule": "B2", "values": [{"measurement": "Kd", "setting": "[4]", "result": 1.8, "unit": "nM"}]}
